Assay results as given in the NIST ThermoML archive (doi:10.1021/je300557g).
± gives the expanded uncertainty stated by the source.

Assay: xn = mol fraction of the nth substance listed
Conditions: 101 kPa, Liquid; for mass density: Vibrating tube method

CCCC[n+]1cccc(C)c1.F[B-](F)(F)F [1-butyl-3-methylpyridinium tetrafluoroborate] + CCO
Conditions	kinematic viscosity, 293.15 K [m2/s]	kinematic viscosity, 303.15 K [m2/s]	kinematic viscosity, 313.15 K [m2/s]	kinematic viscosity, 323.15 K [m2/s]	mass density, 293.15 K [kg/m3]	mass density, 303.15 K [kg/m3]	mass density, 313.15 K [kg/m3]	mass density, 323.15 K [kg/m3]
x1 = 0.0521	2.07e-06 ± 3.1e-08	1.68e-06 ± 2.5e-08	1.4e-06 ± 2.1e-08	1.18e-06 ± 1.8e-08	855.55 ± 0.31	847.17 ± 0.31	838.85 ± 0.31	830.02 ± 0.32
x1 = 0.0964	2.67e-06 ± 3.9e-08	2.12e-06 ± 3.1e-08	1.75e-06 ± 2.6e-08	1.47e-06 ± 2.2e-08	900.79 ± 0.28	892.48 ± 0.28	884.31 ± 0.29	875.68 ± 0.29
x1 = 0.1964	4.31e-06 ± 6.2e-08	3.36e-06 ± 4.9e-08	2.71e-06 ± 4e-08	2.24e-06 ± 3.3e-08	977.43 ± 0.26	969.49 ± 0.26	961.48 ± 0.26	953.37 ± 0.27
x1 = 0.321	6.84e-06 ± 9.6e-08	5.15e-06 ± 7.4e-08	4.19e-06 ± 6.1e-08	3.39e-06 ± 5e-08	1041.5 ± 0.26	1033.92 ± 0.26	1026.2 ± 0.25	1018.52 ± 0.26
x1 = 0.3936	9.28e-06 ± 1.3e-07	6.82e-06 ± 9.6e-08	5.54e-06 ± 8e-08	4.49e-06 ± 6.5e-08	1068.86 ± 0.26	1061.42 ± 0.26	1053.9 ± 0.26	1046.35 ± 0.26
x1 = 0.4941	1.44e-05 ± 1.9e-07	1.03e-05 ± 1.4e-07	8.05e-06 ± 1.1e-07	6.24e-06 ± 8.9e-08	1098.93 ± 0.28	1091.66 ± 0.28	1084.35 ± 0.27	1076.96 ± 0.27
x1 = 0.59	2.21e-05 ± 2.9e-07	1.5e-05 ± 2e-07	1.15e-05 ± 1.6e-07	8.86e-06 ± 1.2e-07	1121.77 ± 0.3	1114.64 ± 0.3	1107.46 ± 0.29	1100.21 ± 0.29
x1 = 0.691	3.66e-05 ± 4.8e-07	2.32e-05 ± 3.1e-07	1.76e-05 ± 2.4e-07	1.28e-05 ± 1.7e-07	1141.6 ± 0.32	1134.58 ± 0.32	1127.48 ± 0.31	1120.38 ± 0.31
x1 = 0.7952	6.13e-05 ± 7.8e-07	3.68e-05 ± 4.9e-07	2.61e-05 ± 3.5e-07	1.81e-05 ± 2.4e-07	1158.8 ± 0.35	1151.88 ± 0.34	1144.87 ± 0.34	1137.9 ± 0.34
x1 = 0.85	8.37e-05 ± 1.6e-06	4.86e-05 ± 6.5e-07	3.28e-05 ± 4.4e-07	2.23e-05 ± 3e-07	1166.81 ± 0.36	1159.93 ± 0.36	1152.99 ± 0.35	1146.06 ± 0.35
x1 = 0.8992	0.000111 ± 3.1e-06	6.25e-05 ± 8.3e-07	4.03e-05 ± 5.4e-07	2.67e-05 ± 3.6e-07	1173.47 ± 0.37	1166.61 ± 0.37	1159.75 ± 0.37	1152.86 ± 0.36
x1 = 0.9477	0.00015 ± 5.7e-06	8.29e-05 ± 1.6e-06	5.08e-05 ± 5.7e-07	3.29e-05 ± 4.4e-07	1179.57 ± 0.39	1172.74 ± 0.38	1165.95 ± 0.38	1159.11 ± 0.38

CCCC[n+]1cccc(C)c1.F[B-](F)(F)F [1-butyl-3-methylpyridinium tetrafluoroborate] + CO
Conditions	kinematic viscosity, 293.15 K [m2/s]	kinematic viscosity, 303.15 K [m2/s]	kinematic viscosity, 313.15 K [m2/s]	kinematic viscosity, 323.15 K [m2/s]	mass density, 293.15 K [kg/m3]	mass density, 303.15 K [kg/m3]	mass density, 313.15 K [kg/m3]	mass density, 323.15 K [kg/m3]
x1 = 0.0481	1.03e-06 ± 1.6e-08	8.95e-07 ± 1.4e-08	7.88e-07 ± 1.2e-08	7e-07 ± 1.1e-08	876.92 ± 0.33	868.11 ± 0.33	858.9 ± 0.33	850 ± 0.34
x1 = 0.0975	1.45e-06 ± 2.2e-08	1.22e-06 ± 1.8e-08	1.06e-06 ± 1.6e-08	9.17e-07 ± 1.4e-08	937.91 ± 0.28	929.46 ± 0.28	920.91 ± 0.28	912.45 ± 0.3
x1 = 0.1973	2.72e-06 ± 3.9e-08	2.2e-06 ± 3.2e-08	1.88e-06 ± 2.8e-08	1.61e-06 ± 2.4e-08	1017.57 ± 0.24	1009.42 ± 0.25	1001.41 ± 0.25	993.31 ± 0.26
x1 = 0.3001	4.45e-06 ± 6.4e-08	3.44e-06 ± 5e-08	3.04e-06 ± 4.4e-08	2.54e-06 ± 3.7e-08	1067.85 ± 0.24	1059.92 ± 0.24	1052.02 ± 0.24	1044.13 ± 0.24
x1 = 0.4013	7.03e-06 ± 9.7e-08	5.64e-06 ± 8e-08	4.73e-06 ± 6.8e-08	3.95e-06 ± 5.7e-08	1101.07 ± 0.24	1093.38 ± 0.24	1085.61 ± 0.24	1077.93 ± 0.24
x1 = 0.4969	1.2e-05 ± 1.6e-07	9.04e-06 ± 1.2e-07	7.23e-06 ± 1e-07	5.68e-06 ± 8.1e-08	1123.81 ± 0.26	1116.36 ± 0.26	1108.79 ± 0.25	1101.32 ± 0.25
x1 = 0.5985	1.98e-05 ± 2.6e-07	1.45e-05 ± 1.9e-07	1.08e-05 ± 1.5e-07	8.38e-06 ± 1.2e-07	1142.18 ± 0.28	1134.95 ± 0.27	1127.63 ± 0.27	1120.38 ± 0.27
x1 = 0.6972	3.36e-05 ± 4.4e-07	2.31e-05 ± 3.1e-07	1.69e-05 ± 2.3e-07	1.27e-05 ± 1.7e-07	1156.2 ± 0.3	1149.14 ± 0.3	1142.07 ± 0.3	1134.99 ± 0.29
x1 = 0.7942	5.92e-05 ± 7.2e-07	3.53e-05 ± 4.7e-07	2.51e-05 ± 3.3e-07	1.76e-05 ± 2.4e-07	1167.41 ± 0.33	1160.48 ± 0.33	1153.59 ± 0.32	1146.64 ± 0.32
x1 = 0.8427	7.8e-05 ± 1.4e-06	4.59e-05 ± 6.1e-07	3.12e-05 ± 4.1e-07	2.13e-05 ± 2.9e-07	1172.3 ± 0.34	1165.41 ± 0.34	1158.59 ± 0.34	1151.69 ± 0.33
x1 = 0.8978	0.00011 ± 3e-06	6.28e-05 ± 8.3e-07	4.03e-05 ± 5.4e-07	2.67e-05 ± 3.6e-07	1177.37 ± 0.36	1170.53 ± 0.36	1163.75 ± 0.36	1156.91 ± 0.35
x1 = 0.9689	0.000171 ± 7.2e-06	9.3e-05 ± 2.1e-06	5.65e-05 ± 6.7e-07	3.61e-05 ± 4.9e-07	1183.27 ± 0.39	1176.47 ± 0.39	1169.72 ± 0.38	1162.95 ± 0.38
